In one data set the test system is subjects. The following applies: 20 mg escitalopram; cited from earlier work.
For data set [1] the following is noted: post-ingestion; cited from earlier work.
Another data set has as its system Wistar-Kyoto (WKY) rats. Put plainly: Sleep-wake scoring (EEG/EMG: wake, NREM, REM) in rat model of TRD. The data set is classed as in vivo. The conditions noted are these: 5 and 10 mg/kg, s.c. The source says: Since WKY rats show decreased sensitivity to conventional monoamine-based antidepressant treatment, they are used as a model of TRD.
Male (WKY) rats (200-250 g) were implanted with electroencephalography (EEG) and electromyography (EMG) electrodes and telemetry transmitters under general anesthesia (2-5% isoflurane in Oxygen). A telemetry transmitter (HD-502, Data Sciences International) was placed in the peritoneal cavity, and the wires of the transmitter were passed through the muscle wall and then sub-dermally to the scalp to act as EEG/EMG electrodes. Two bore holes were made in the skull (Fronto-parietal coordinates; Bregma +2 mm anterior, midline +1.0 mm lateral and Lambda 0 mm, +1.5 mm lateral). The positive EEG electrode was attached to the anterior bore hole and the negative EEG electrode to the posterior bore hole. Both electrodes were secured in place using a suitable adhesive agent (Cyanoacrylate gel, RS components). […]
Animals were maintained on a 12/12 hour light dark cycle. On study days, the animals were placed in recording boxes and EEG/EMG, locomotor activity, as well as body temperature were recorded for 0.5 hours before and 24 hours after each dosing. […]
The subsequent EEG/EMG recordings were automatically scored as wake, non-REM (NREM) sleep, or REM sleep in 10 second epochs using SleepSign (Kissei Comtec, Japan). […]

We go through two compounds from patent publication US20230023092A1, “TREATMENT OF DEPRESSION AND OTHER VARIOUS DISORDERS WITH PSILOCYBIN” (COMPASS […], priority 2019, published 2023).

Turning to `CN(C)CCC[C@@]1(c2ccc(F)cc2)OCc2cc(C#N)ccc21` [escitalopram], the “Frequency of common side effects: agitation or restlessness; diarrhea; difficulty sleeping; drowsiness; dry mouth; headache; nausea; sexual difficulties; dizziness; sweating” value in the data set with subjects is given as “Common (~10% at 20 mg escitalopram)”. Moreover, the “Time to peak plasma concentration” value in data set [1] is 3 to 4 h.
For `CNC1(c2ccccc2Cl)CCCCC1=O` (stereo not drawn) [ketamine], the “Amount of REM sleep” value with Wistar-Kyoto (WKY) rats is given as “decreased the amount of REM sleep in a dose-dependent manner”.
